In PubChem BioAssay AID463229 (Broad Institute, 2010) one finds AC50 data, which are given here for 94 molecules.

By AC50 is commonly meant the concentration giving half of the maximal activity seen.

Values joined by “and” are separate entries in the source; they are usually repeats but may differ in a detail not shown here. Identical values can stand only once.

In the assay the test system is INS-1E rat beta cells, no cytokines, CellTiter-Glo ATP, 48 h. Briefly: ATP level change in INS-1E without cytokines, dose response, counter-screen for beta-cell apoptosis protection project, INS-1E rat cells, ATP luminescence, cherry pick (AID 463229). (Counterscreens check selectivity or assay interference.)
Take `O=C(N/N=C/c1cc(Br)ccc1O)C(=O)Nc1ccccc1OC(F)(F)C(F)F`: the AC50 is 6.77 µM.

For the molecule `CC(=O)C1=NN(c2ccccc2)C(c2cccs2)N1c1ccc(N(C)C)cc1` (centres undefined), the AC50 is 3.56 µM.

Regarding `COC(=O)c1cccc(NC(=O)Nc2ccc(Cl)c(Cl)c2)c1`, the half-maximal activity concentration (AC50) was 10.4 µM.

For the molecule `CCCCn1c(/C=N/Nc2nc3ccccc3[nH]2)nc2ccccc21`, the AC50 was 14.1 µM.

For the molecule `COc1ccc(-n2cc(-c3ccc(OC(F)F)cc3)[n+]3c2CCCCC3)cc1`, the AC50 is 2.07 µM.

Regarding `O=C(Nc1nc2ccccc2[nH]1)c1ccccc1F`, the concentration at half-maximal activity (AC50) was 2.14 µM.

Regarding `Cc1ccc(/C=N/Nc2ccnc3cc(Cl)ccc23)c(C)c1`, the half-maximal activity concentration (AC50) is 13.4 µM.

As for `CC[C@@H](C(=O)[C@@H](C)[C@@H](O)[C@H](C)CCc1ccc(C)c(O)c1C(=O)O)[C@H]1O[C@](CC)([C@H]2CC[C@](O)(CC)[C@H](C)O2)C[C@@H]1C`, the AC50 was 2.49 µM.

Turning to `Cc1cc(C)nc(SCc2ccc(C(=O)N/N=C/c3cccc(O)c3O)cc2)n1`, the AC50 was 8.06 µM.

For the molecule `CCOC(=O)c1c(C)[nH]c(C(=O)OCC(=O)NC(C)(C)C)c1C`, the half-maximal activity concentration (AC50) is 13.1 µM.

With `CC1CCC(C(C)C)C(OC(=O)Cn2c(-c3ccc(F)cc3)[n+](C)c3ccccc32)C1` (centres undefined), the AC50 is 4.49 µM.

For `Cc1cc(/C=N/n2c(COc3ccccc3C)nc3ccccc3c2=O)c(O)c([N+](=O)[O-])c1`, the AC50 was 8.92 µM.

Regarding `COc1cccc(/C=N\NC(=O)c2ccc(Cn3cc(Br)c([N+](=O)[O-])n3)o2)c1O`, the AC50 is 7.9 µM.

For `O=C1C=C(Nc2ccc(F)cc2)c2ccccc2C1=O`, the AC50 is 7.19 µM.

Take `CCN(CC)CCN1c2ccccc2Sc2ccc3ccccc3c21`: the AC50 is 18.1 µM.

`C/C(=N\NC(=O)c1ccccc1OCc1ccc(F)cc1)c1ccccn1`: the AC50 is 8.35 µM.

In the case of `CNC[C@@H](CC1CCCCC1)NC[C@H](CC(C)C)NCCc1cccc(C(F)(F)F)c1`, the AC50 is 4.4 µM.

For `Cc1cc(C)c2nc(NNC(=O)c3ccc(S(=O)(=O)N4CCc5ccccc5C4)cc3)sc2c1`, the concentration at half-maximal activity (AC50) is 3.39 µM.

For `COC(=O)c1ccccc1NC1=C/C(=N\S(=O)(=O)c2ccc(C(=O)O)cc2)c2ccccc2C1=O`, the AC50 was 9.17 µM.

In the case of `Cc1nc2ccccc2c2oc(C(=O)Nc3ccc(C(C)C)cc3)cc12`, the AC50 was 21.6 µM.

As to `O=C(c1ccccc1)c1c2c(cc3sc4ccccc4[n+]13)-c1cccc3cccc-2c13`, the AC50 was 2.26 µM.

Consider `Cc1cc[n+](C(C)C(=O)c2ccc(-c3ccccc3)cc2)cc1` (centres undefined), for which the AC50 is 3.81 µM.

For `N=c1c2c(n(Cc3cccc(Cl)c3)c3c1CCC3)CCCC2`, the AC50 is 7.28 µM.

`CCN(CC)c1ccc(/C=N/NC(=O)c2cnccn2)c(O)c1`: the AC50 was 2.01 µM.

As for `CC(C)(C)Nc1nc(-c2ccccn2)nc2ccccc12`, the half-maximal activity concentration (AC50) is 6.87 µM.

Turning to `Cc1ccc(NS(=O)(=O)c2ccc(NC(=O)CN(c3cc([N+](=O)[O-])ccc3C)S(C)(=O)=O)cc2)c(C)c1`, the AC50 is 1.86 µM.

As for `CC(C)(C)c1cc(NCCCn2ccnc2)n2ncc(-c3ccccc3)c2n1`, the AC50 is 15 µM.

Regarding `COc1ccc(C(=O)/C(=C\c2ccco2)N2C=CC=CC2=C(C#N)C#N)cc1`, the AC50 was 7.26 µM.

As for `CCCCCCCCCCOC(=O)Cn1c(COc2ccccc2C)[n+](C)c2ccccc21`, the AC50 is 3.22 µM.

With `COc1ccc(-c2cn(-c3ccc(OC)cc3)c3[n+]2-c2ccccc2CC3)cc1`, the AC50 is 0.806 µM.

On to `O=C(Nc1ccc(-c2noc(-c3cccs3)n2)cc1)c1cccnc1`, for which the AC50 is 13 µM.

Take `CN(C)C1CCN(Cc2cc(COCc3ccccc3)c3cccnc3c2O)C1` (centres undefined): the half-maximal activity concentration (AC50) was 10.9 µM.

Take `CCCNC(=O)c1ccc2c(=O)c(O)c(-c3cccc(Br)c3)[nH]c2c1`: the AC50 was 4.63 µM.

As for `Cc1ccccc1Oc1cc(NC(=O)CCCn2nc(C)c([N+](=O)[O-])c2C)cc([N+](=O)[O-])c1`, the AC50 is 6.44 µM.

Turning to `O=C(Nc1ccc(Cl)cc1)Nc1nnc(-c2ccncc2)s1`, the AC50 was 4.78 µM.

For `CCN1CCN(Cc2ccc(NC(=O)c3cc(NC(=O)c4cncc(-c5ccc(C#N)cc5)c4)cc(OC)c3)cc2C(F)(F)F)CC1`, the AC50 was 10.8 µM.

As for `N#C/C(=C\c1ccc([N+](=O)[O-])o1)c1nc2ccccc2[nH]1`, the AC50 is 4.09 µM.

As for `Cc1nc2ccccn2c1C(=O)/C=C/c1cccc([N+](=O)[O-])c1`, the half-maximal activity concentration (AC50) is 7.93 µM.

Take `Cc1ccc(NC(=O)C2=C(c3ccccc3)S(=O)(=O)CCS2(=O)=O)cc1`: the AC50 was 12.6 µM.

Consider `CC1=NN(c2nc3ccccc3[nH]2)C(=O)/C1=C/N(C)C`, for which the AC50 was 2.9 µM.

Turning to `CC(C)C[C@H]1CN=C(Nc2ccccc2)N1CC1CCC(C(C)(C)C)CC1` (some centres undefined), the half-maximal activity concentration (AC50) is 8.6 µM.

In the case of `Cc1ccc2nc(NNC(=O)c3ccc(S(=O)(=O)N4CCc5ccccc5C4)cc3)sc2c1`, the AC50 was 4.18 µM.

`O=C(/C=C/c1ccc(-c2ccccc2)cc1)NCc1cccnc1`: the AC50 was 9.36 µM.

Regarding `Nc1nonc1-n1nnc(C(=O)N/N=C/c2cc(Br)ccc2O)c1CSC1=NCCS1`, the half-maximal activity concentration (AC50) was 3.58 µM.

On to `O=C(N/N=C/c1ccccc1O)/C(=C/c1ccccc1)CCO`, for which the AC50 was 7.67 µM.

Turning to `COc1ccc(-n2cc(-c3ccccc3)[n+]3c2CCCCC3)cc1`, the AC50 is 1.94 µM.

`CCCCS(=O)(=O)/C=C\C=C/S(=O)(=O)CCCC`: the concentration at half-maximal activity (AC50) was 5.48 µM.

As for `COc1cccc(/C=N/Nc2ccnc(=O)[nH]2)c1O`, the AC50 was 22.7 µM.

Regarding `c1ccc(CNc2c3ccccc3nc3ccccc23)cc1`, the AC50 was 11.5 µM.

Take `CCn1c(C)nc2cc(C(=O)N/N=C/c3cccc(O)c3O)ccc21`: the AC50 is 8.42 µM.

For the molecule `COc1cccc(/C=N/NC(=O)c2c(-c3ccccc3)noc2C)c1O`, the AC50 was 8.09 µM.

In the case of `Cc1nc2ccccc2cc1OCc1ccc(F)cc1`, the AC50 was 6.6 µM.

With `O=C(NN=C(c1ccccc1)c1ccccn1)c1ccccc1`, the AC50 was 2.55 µM.

`O=c1c2ccccc2nc(COc2ccccc2)n1/N=C/c1ccc(O)cc1O`: the half-maximal activity concentration (AC50) is 15.9 µM.

Turning to `CC(=O)c1c(C)[nH]c(C(=O)OCC(=O)Nc2ccc(Cl)cc2[N+](=O)[O-])c1C`, the AC50 was 2.82 µM.

Consider `O=S(=O)(c1ccc(NC(=S)NCc2cccnc2)cc1)N1CCCCC1`, for which the AC50 is 1.62 µM.

In the case of `CCN(C1CCCCC1)S(=O)(=O)c1ccc(S(=O)(=O)NCc2ccncc2)cc1`, the AC50 was 6.3 µM.

Regarding `COc1cc2c(cc1OC)-c1c(OC)c(OC)c(OC)c3ccnc(c13)C2=O`, the AC50 is 6.65 µM.

In the case of `CCN1CCN(c2ccc(S(=O)(=O)N3CCCCC3)cc2NC(=O)c2ccc([N+](=O)[O-])s2)CC1`, the AC50 is 6.94 µM.

In the case of `Cc1cc(C)c(C)c(S(=O)(=O)N2CCN(c3ncnc4ccccc34)CC2)c1C`, the concentration at half-maximal activity (AC50) was 6.34 µM.

`CCCCCCn1c(=O)c(C(=O)Nc2ncccc2C)c(O)c2ccccc21`: the AC50 is 5.5 µM.

In the case of `S=C(Nc1ccc(Cl)cc1)Nc1cccc2cnccc12`, the AC50 is 22.2 µM.

As for `Cc1cccc2sc(NNC(=O)c3ccc(S(=O)(=O)N4CCCC(C)C4)cc3)nc12` (centres undefined), the AC50 is 6.74 µM.

Regarding `O=C(N/N=C/c1ccccc1O)c1ccc2c(c1)OCO2`, the AC50 was 7.41 µM.

Regarding `C=C(C(=O)c1ccccc1)C(C(=C)C(=O)c1ccccc1)c1ccc(OC)cc1`, the AC50 was 7.54 µM.

On to `CCCCCc1cc(=O)oc2c(C(CCN(CC)CC)c3ccc(OC)cc3)c(OC)cc(OC)c12` (centres undefined), for which the AC50 was 14 µM.

Consider `CCN(CC)c1ccc2nc3ccccc3[n+](CC)c2c1`, for which the half-maximal activity concentration (AC50) was 3.19 µM.

For the molecule `[O-][N+]1=c2ccc(Nc3ccccc3)cc2=NC12CCCCC2`, the AC50 was 12.5 µM.

`COc1ccccc1N(CC(=O)N/N=C/c1c(O)ccc2ccccc12)S(C)(=O)=O`: the AC50 is 7.54 µM.

In the case of `O=C(CSC1c2ccccc2-c2ccccc21)N/N=C/c1ccccc1O`, the AC50 was 6.8 µM.

`CCN(CC)c1ccc(/C=N/NC(=O)CNC(=O)C2COc3ccccc3O2)c(O)c1` (centres undefined): the AC50 was 5.41 µM.

As for `CCCC(=O)NC(c1cccs1)c1cc(Cl)c2cccnc2c1O` (centres undefined), the AC50 was 5.67 µM.

Regarding `Cc1ccc(C(=O)N2N=C(c3ccc(Br)cc3)CC2c2ccccc2O)cc1` (centres undefined), the AC50 is 7.3 µM.

As to `CCCOc1cc(NCc2ccccc2)c2ncn(C(C)C)c2c1`, the AC50 is 7.28 µM.

As for `CCCCCCC[N+](CC)(CC)CCCCc1ccc(Cl)cc1`, the AC50 was 4.93 µM.

In the case of `COc1ccccc1-n1c(-c2ccccc2)c[n+]2c1CCc1ccccc1-2`, the AC50 is 2.16 µM and 3.41 µM.

`Cc1ccccc1-[n+]1c(-c2ccccc2)cc(-c2ccccc2)cc1-c1ccccc1`: the concentration at half-maximal activity (AC50) is 2.2 µM.

With `FC(F)(F)c1nc2ccccc2n2c(-c3ccc(Cl)cc3)nnc12`, the AC50 was 7.14 µM.

Turning to `COc1ccc2[nH]c(C(=O)N/N=C/c3ccc(O)cc3O)cc2c1`, the AC50 was 2.08 µM.

As to `COC(=O)c1cc(C)nc2c1C(=O)C(=O)C=C2N1CCOCC1`, the AC50 was 4.66 µM.

Take `CCN1CCN(Cc2ccc(NC(=O)c3cc(NC(=O)C(=O)c4c[nH]c5ccccc45)cc(OC)c3)cc2C(F)(F)F)CC1`: the AC50 is 7.12 µM.

As to `CCCCCCSc1cccc(-c2nc3ccccn3c2NCc2ccccc2)c1`, the AC50 was 6.25 µM.

Take `COc1ccc(C2/C=C\CN(C(=O)c3ccccc3)[C@H](Cc3ccccc3)C(=O)N2Cc2ccc(F)cc2)cc1` (some centres undefined): the AC50 was 7.75 µM.

As for `Cn1c(/C=C/c2ccc([N+](=O)[O-])o2)nc2ccccc2c1=O`, the AC50 was 3.56 µM.

Regarding `O=C(CCCc1nc(-c2ccc(Cl)cc2)no1)NC1CCCC1`, the AC50 was 13.5 µM.

Regarding `Oc1ccccc1/C=N/Nc1ncc(Br)cn1`, the AC50 was 19.7 µM.

In the case of `Cc1ccc(NC(=O)c2ccc([N+](=O)[O-])o2)cc1S(=O)(=O)N1CCOCC1`, the AC50 is 14.3 µM.

As for `CC1CCC(C(C)C)C(OC(=O)Cn2c(COc3ccccc3)[n+](C)c3ccccc32)C1` (centres undefined), the AC50 was 7.08 µM.

`Cc1ccccc1CNc1ccc(C(CC(N)=O)NC(=O)c2ccc(Br)cc2)cc1[N+](=O)[O-]` (centres undefined): the AC50 was 15.7 µM.

On to `C=C1C(=O)O[C@@H]2C[C@@H](C)[C@@H]3C4OC4C(=O)[C@@]3(C)[C@@H](O)[C@H]12` (some centres undefined), for which the AC50 is 7.57 µM.

On to `Cc1ccc(NC(=O)CCC(=O)N/N=C/c2ccc([N+](=O)[O-])o2)cc1C`, for which the AC50 was 19.8 µM.

In the case of `CC(C)NC(=S)N/N=C/c1cc(Br)ccc1O`, the AC50 was 12.6 µM.

Turning to `COc1cnc(-c2ccccn2)nc1Oc1ccc(Cl)c2ccccc12`, the AC50 is 15.3 µM.

For the molecule `O=C(c1ccc([N+](=O)[O-])s1)N1CCN(c2cccc(Cl)c2)CC1`, the AC50 is 19.3 µM.
